From PMC8517087, “Analysis of M4 Transmembrane Segments in NMDA Receptor Function: A Negative Allosteric Modulatory Site at the GluN1 M4 is Determining the Efficiency of Neurosteroid Modulation” (Frontiers in Pharmacology, 2021)
Structures can show the parent of a compound that is named as a salt.

Tests used:
Experiment in all cases: two-electrode voltage clamp, Xenopus oocytes, -70 mV
Type in all cases: cell-based
[1] = target: T1, GluN1^ΔM4+M4^N1/GluN2A (Rattus norvegicus; Mus musculus, UniProt P35436+P35439)
T1 construct: gene Grin1; M4-truncated GluN1 plus separately expressed M4 fragment carrying GluN1 signal peptide, with full-length GluN2A; Xenopus oocytes

[2] = target: T2, GluN1/GluN2A (Rattus norvegicus; Mus musculus, UniProt P35436+P35439)
T2 construct: gene Grin1; full-length wild-type subunits in pNKS2, cRNA in Xenopus laevis oocytes; heterotetramer (rat GluN1 with mouse GluN2A)

[3] = target: T3, GluN1/GluN2A^ΔM4+M4^N2A (Rattus norvegicus; Mus musculus, UniProt P35436+P35439); settings: saturating glutamate and glycine, PS pre-applied 45 s
T3 construct: gene Grin1; full-length GluN1 with M4-truncated GluN2A plus separately expressed GluN2A M4 fragment; Xenopus oocytes

[4] = target: T4, GluN1^ΔM4+M4^N1/GluN2D (Rattus norvegicus; Mus musculus, UniProt P35439+Q03391); settings: saturating glutamate and glycine, PS pre-applied 45 s
T4 construct: gene Grin1; M4-truncated GluN1 plus separately expressed M4 fragment carrying GluN1 signal peptide, with full-length GluN2D; Xenopus oocytes

T2 sequence (P35436 23-1464, other chains not shown): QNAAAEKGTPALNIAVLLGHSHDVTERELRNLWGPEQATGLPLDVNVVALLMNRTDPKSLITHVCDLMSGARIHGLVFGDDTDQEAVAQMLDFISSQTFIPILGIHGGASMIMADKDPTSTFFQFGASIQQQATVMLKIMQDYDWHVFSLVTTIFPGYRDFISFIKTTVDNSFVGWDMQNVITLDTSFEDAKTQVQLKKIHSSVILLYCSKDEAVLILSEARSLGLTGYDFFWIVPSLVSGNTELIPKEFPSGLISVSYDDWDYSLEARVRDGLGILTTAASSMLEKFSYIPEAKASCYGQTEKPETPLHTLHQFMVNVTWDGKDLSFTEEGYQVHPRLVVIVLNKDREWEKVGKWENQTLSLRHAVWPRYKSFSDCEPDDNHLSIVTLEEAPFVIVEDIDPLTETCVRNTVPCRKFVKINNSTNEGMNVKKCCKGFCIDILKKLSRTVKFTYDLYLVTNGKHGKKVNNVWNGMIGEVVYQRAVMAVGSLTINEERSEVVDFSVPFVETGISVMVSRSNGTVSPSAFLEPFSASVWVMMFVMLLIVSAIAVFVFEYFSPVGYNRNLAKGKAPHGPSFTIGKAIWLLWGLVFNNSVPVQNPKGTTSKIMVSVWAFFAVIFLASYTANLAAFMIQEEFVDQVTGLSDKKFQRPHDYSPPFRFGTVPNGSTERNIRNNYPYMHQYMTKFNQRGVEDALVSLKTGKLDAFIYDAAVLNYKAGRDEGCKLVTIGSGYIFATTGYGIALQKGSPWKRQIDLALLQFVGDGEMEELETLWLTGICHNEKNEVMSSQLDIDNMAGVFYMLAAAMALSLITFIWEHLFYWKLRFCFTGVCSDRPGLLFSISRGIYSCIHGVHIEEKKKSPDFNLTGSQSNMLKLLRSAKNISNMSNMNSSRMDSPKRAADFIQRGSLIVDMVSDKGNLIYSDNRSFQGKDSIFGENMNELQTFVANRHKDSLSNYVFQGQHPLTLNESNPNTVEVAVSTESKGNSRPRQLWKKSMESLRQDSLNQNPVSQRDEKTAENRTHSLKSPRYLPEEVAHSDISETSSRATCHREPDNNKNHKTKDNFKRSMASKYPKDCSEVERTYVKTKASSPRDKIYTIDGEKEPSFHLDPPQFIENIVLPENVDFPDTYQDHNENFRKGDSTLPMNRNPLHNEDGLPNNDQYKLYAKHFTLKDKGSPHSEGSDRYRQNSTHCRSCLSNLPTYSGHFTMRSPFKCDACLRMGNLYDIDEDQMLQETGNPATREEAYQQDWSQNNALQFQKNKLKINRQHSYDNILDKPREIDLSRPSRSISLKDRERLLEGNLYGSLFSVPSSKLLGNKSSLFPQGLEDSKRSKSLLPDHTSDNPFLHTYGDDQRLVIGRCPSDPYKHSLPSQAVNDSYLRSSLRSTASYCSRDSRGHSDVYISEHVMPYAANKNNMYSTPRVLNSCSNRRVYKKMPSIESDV
T3 sequence (P35436 23-803, stated change not applied, other chains not shown): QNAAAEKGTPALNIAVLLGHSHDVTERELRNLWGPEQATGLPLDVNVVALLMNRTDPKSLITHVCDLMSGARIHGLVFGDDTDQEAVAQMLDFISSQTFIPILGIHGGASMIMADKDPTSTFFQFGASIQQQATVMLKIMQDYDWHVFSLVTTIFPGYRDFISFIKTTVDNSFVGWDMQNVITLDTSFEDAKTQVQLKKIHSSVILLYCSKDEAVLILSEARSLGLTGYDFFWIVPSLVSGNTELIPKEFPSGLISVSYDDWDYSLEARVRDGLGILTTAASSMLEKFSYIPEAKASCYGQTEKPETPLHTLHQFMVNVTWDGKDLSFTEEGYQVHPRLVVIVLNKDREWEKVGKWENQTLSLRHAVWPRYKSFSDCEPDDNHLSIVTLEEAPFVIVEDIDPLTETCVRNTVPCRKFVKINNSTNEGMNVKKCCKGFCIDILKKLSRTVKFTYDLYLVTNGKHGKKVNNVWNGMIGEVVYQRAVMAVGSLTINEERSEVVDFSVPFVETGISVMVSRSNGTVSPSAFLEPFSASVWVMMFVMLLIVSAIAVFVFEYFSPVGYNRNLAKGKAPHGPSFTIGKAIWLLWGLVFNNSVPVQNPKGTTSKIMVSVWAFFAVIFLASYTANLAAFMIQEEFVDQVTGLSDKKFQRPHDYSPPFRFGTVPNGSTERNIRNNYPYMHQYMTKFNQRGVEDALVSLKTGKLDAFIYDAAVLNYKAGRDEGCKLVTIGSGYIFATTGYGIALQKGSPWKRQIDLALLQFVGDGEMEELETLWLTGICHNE
T3 sequence (P35436 804-1464, stated change not applied, other chains not shown): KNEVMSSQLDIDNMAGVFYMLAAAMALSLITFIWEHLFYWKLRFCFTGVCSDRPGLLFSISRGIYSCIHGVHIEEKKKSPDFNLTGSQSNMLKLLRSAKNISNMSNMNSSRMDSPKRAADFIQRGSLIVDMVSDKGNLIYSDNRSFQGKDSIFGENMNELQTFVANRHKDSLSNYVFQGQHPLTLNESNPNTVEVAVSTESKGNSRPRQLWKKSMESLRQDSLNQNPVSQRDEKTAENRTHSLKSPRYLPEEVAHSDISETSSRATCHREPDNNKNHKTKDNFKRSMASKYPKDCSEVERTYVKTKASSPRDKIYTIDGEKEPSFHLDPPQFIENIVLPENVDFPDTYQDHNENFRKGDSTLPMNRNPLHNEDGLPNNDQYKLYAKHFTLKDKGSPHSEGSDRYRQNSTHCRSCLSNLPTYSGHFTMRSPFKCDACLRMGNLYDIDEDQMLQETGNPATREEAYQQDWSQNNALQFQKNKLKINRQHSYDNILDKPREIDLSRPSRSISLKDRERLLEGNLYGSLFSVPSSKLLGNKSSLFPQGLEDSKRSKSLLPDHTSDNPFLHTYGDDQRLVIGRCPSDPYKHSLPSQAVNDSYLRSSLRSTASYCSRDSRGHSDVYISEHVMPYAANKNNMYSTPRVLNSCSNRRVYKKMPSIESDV

## CC(=O)[C@H]1CC[C@H]2[C@@H]3CC=C4C[C@@H](OS(=O)(=O)O)CC[C@]4(C)[C@H]3CC[C@]12C [pregnenolone sulfate, 20-oxo-5-pregnen-3β-yl sulfate]
[1]
  EC50: 15 ± 1.1 µM
[2]
  EC50: 12.4 ± 1.3 µM
[3]
  Imax potentiation at 100 μM (fold): ~ 1.1 fold
[4]
  Imax potentiation (fold): 1.45 ± 0.19 fold
